We go through one compound from patent publication US12649980B2, “Three-dimensional surface for protein and small molecule microarrays” (The Johns Hopkins University, priority 2019, dated 2026).

In one assay the test system is p53 and p21. Kind of assay: Western blot of p53 and p21 in MCF-7 cells. Format: cell-based, human. To be noted: MCF-7, 24-h treatment, dose-dependent. As for the experimental part: The effects of RgA on cell growth, survival, and cell death was then determined. […] Treatment with 5 μM of RgA caused an increase in G1 phase by approximately 23% in comparison to control and approximately 7% and 17% decreases in cells in S and G2/M phases, respectively. The induction in G1 phase cell cycle arrest by RgA is dose-dependent (FIG. 5A, FIG. 16). […] Jones and Thompson, Genes Dev. 2009, 23, 537-548. […] The IC50 values of RgA against several human cancer cell lines also was determined using the alamar blue cell proliferation assay.
For western blot analysis, cells were harvested and lysed by RIPA buffer plus protease inhibitor. Cell lysates or samples from pull-down experiment were subjected to SDS/PAGE and then transferred to a nitrocellulose membrane. Membranes were first blocked in 5% (wt/vol) BSA in Tris-buffered saline plus 0.1% Tween 20 (TBST) at room temperature for 30 min and incubated with primary antibodies at 4° C. for overnight. Membranes were then washed three times with TBST and incubated with secondary antibodies at room temperature for another 1 h. Membranes were washed with TBST three times again and incubated with ECL substrate for 1 min at room temperature. Pictures were captured using a GeneSys Image Station.

In another assay the target is T1, GLUT1 (Homo sapiens, UniProt P11166).
T1 construct: The full-length human SLC2A1, SLC2A3, and SLC2A4 genes were PCR amplified and inserted into pLenti6M vector 2; expressed in transfected cells
T1 sequence (P11166 1-492): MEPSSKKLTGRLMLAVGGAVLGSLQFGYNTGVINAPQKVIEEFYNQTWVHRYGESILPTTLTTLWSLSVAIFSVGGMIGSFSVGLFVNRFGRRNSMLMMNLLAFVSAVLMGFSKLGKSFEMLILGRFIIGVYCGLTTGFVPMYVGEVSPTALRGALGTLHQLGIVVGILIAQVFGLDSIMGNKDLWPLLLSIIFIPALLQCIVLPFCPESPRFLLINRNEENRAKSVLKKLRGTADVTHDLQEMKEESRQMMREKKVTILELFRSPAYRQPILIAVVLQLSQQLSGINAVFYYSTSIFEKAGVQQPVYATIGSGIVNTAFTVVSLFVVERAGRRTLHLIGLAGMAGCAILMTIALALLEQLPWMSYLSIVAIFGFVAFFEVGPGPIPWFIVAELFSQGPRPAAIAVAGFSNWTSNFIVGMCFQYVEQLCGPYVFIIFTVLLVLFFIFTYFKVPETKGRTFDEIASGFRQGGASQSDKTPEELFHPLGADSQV
The assay is described as follows: rapafucin 2D microarray screen with GLUT1-containing cell lysate. The format is binding. Particulars: signal-to-background ratio, 2D surface, same lysate and conditions. The source says:
Once stock solutions of the rapafucin library were arrayed on the 2D or 3D surface and most of solvent carrier was evaporated, the crosslinking reaction was initiated by irradiating the surfaces with 365-nm wavelength UV light. Kawatani and Osada, Medchemcomm 2014, 5, 277-287. […] To screen for GLUT1-interacting rapafucins, GLUT1 was stably overexpressed in HEK293T cells and generated cell lysates containing detergent-solubilized recombinant GLUT1 (FIG. 10). The GLUT1-containing cell lysate was then incubated on both 2D and 3D rapafucin microarrays. After washing the slides to remove unbound proteins, the bound GLUT1 protein was detected with anti-GLUT1 antibodies, followed by visualization with Cy5-labeled secondary antibodies using a microarray scanner. Rapafucins were scored as positive hits when the corresponding SBR was greater than 3. Based on this criterion, a total of 17 rapafucin hits and one positive control BAY-876, a specific GLUT1 inhibitor, Siebeneicher et al., ChemMedChem 2016, 11, 2261-2271, were identified on the 3D rapafucin microarray. In contrast, only one hit (WL13-F11, also among the 17 hits identified from the 3D rapafucin microarray) was identified on the 2D rapafucin microarray (Table 1, FIG. 11).
In the optimization experiments, the slides were incubated with 50 nM purified recombinant FKBP12 for 1 hour, while in the GLUT1 screening, 10 mg/mL of cell lysate containing DDM-solubilized GLUT1 from GLUT1 overexpressed HEK293T was incubated for 1 hour. Successively, primary antibody and CY5 labeled secondary antibody were added for 1 hour. The chips were washed in buffer A for 5 mins 3 times after the sample and antibodies incubation. After centrifugation, the dried chips were scanned by a microarray scanner (Genepix, US) at 635-nm wavelength. The final result was analyzed by GenePix software.

As to `CCC(C)C1C(=O)NCC(=O)N(C)CCC=CC(=O)OCC(C)(C)C(=O)C(=O)N2CCCCC2C(=O)OC(CCc2ccc(OC)c(OC)c2)c2cccc(c2)NC(=O)CCC(=O)N(C)C(CC(C)C)C(=O)NC(Cc2ccccc2)C(=O)N1C` (centres unmarked) [JW11-D2, Rapaglutin A], the “p53 and p21 activation” value with p53 and p21 was “activation of both p53 and p21”. Besides, the “2D SBR” value at GLUT1 was less than 3.0.
